The record followed here is ChEMBL document CHEMBL3817800, “Dihydropyrimidones: As novel class of β-glucuronidase inhibitors” (Bioorg Med Chem, 2016).

Molecules are shown by their SMILES.

The target in one assay is T1, Beta-glucuronidase (Bos taurus, UniProt A3KMY8).
T1 sequence (A3KMY8 whole entry): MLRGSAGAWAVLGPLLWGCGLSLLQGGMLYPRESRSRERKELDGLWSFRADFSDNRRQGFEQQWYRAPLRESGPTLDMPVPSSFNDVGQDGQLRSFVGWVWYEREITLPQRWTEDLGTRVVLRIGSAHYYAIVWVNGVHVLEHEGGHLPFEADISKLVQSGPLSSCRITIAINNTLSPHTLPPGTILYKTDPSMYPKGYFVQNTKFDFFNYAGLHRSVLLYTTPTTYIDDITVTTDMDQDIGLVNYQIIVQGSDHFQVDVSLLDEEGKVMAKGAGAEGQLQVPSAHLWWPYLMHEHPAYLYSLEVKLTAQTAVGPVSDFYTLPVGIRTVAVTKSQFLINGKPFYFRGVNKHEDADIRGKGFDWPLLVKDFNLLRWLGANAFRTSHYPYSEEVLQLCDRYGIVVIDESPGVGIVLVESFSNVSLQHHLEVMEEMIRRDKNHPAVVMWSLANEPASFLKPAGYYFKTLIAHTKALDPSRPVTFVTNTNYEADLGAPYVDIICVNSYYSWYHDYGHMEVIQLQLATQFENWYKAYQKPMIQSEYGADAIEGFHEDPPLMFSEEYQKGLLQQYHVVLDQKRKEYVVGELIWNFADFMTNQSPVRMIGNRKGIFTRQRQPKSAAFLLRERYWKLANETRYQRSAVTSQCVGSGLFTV
Description: Inhibition of bovine liver beta-glucuronidase assessed as p-nitrophenol formation preincubated for 30 mins followed by p-nitrophenyl-beta-D-glucuronide addition by spectrophotometric method.

Assay [1] deals with T2, Beta-glucuronidase (Bos taurus) (UniProt A3KMY8).
T2 sequence (whole entry): T1 sequence (A3KMY8 whole entry)
Nature of the assay: Potency index, ratio of D-saccharic acid 1,4-lactone IC50 to compound IC50 for bovine liver beta-glucuronidase.

`COC(=O)C1=C(C)NC(=O)NC1c1ccco1` (stereo not given): the half-inhibitory concentration (IC50) at Beta-glucuronidase (read-out: IC50) worked out at 40.2 µM.
Take `COC(=O)C1=C(C)NC(=O)NC1c1ccc(Br)cc1` (stereo not given): at Beta-glucuronidase (read-out: IC50), the concentration for half-maximal inhibition (IC50) was found to be 64.1 µM.
The same measure, in the same setting: for `COC(=O)C1=C(C)NC(=O)NC1c1ccc([N+](=O)[O-])cc1` (stereo not given) the value was 49.1 µM; for `COC(=O)C1=C(C)NC(=O)NC1c1ccc(F)c(OC)c1` (stereo not given), 22.1 µM.
For the compound `COC(=O)C1=C(C)NC(=O)NC1c1ccc(OC)c(OCc2ccccc2)c1` (stereo not given), the IC50 result on Beta-glucuronidase is given as “Not Active”.
Regarding `COC(=O)C1=C(C)NC(=O)NC1c1cc(OC)ccc1OC` (stereo not given), the 50% inhibitory concentration (IC50) on Beta-glucuronidase (read-out: IC50) was 61 µM.
Same read-out and setting: for `CCC1NC(=O)NC(C)=C1C(=O)OC` (stereo not given) the value was 52.2 µM.
As to `COC(=O)C1=C(C)NC(=O)NC1c1cc(OC)c(O)c(OC)c1` (stereo not given), at Beta-glucuronidase (read-out: IC50), the IC50 amounted to 34.2 µM.
Consider `COC(=O)C1=C(C)NC(=O)NC1c1cc(Br)c(OC)c(OC)c1` (stereo not given), for which, on Beta-glucuronidase, the IC50 entry is listed as “Not Active”.
`COC(=O)C1=C(C)NC(=O)NC1c1ccc(C(C)C)cc1` (stereo not given): the IC50 entry at Beta-glucuronidase was “Not Active”.
For the compound `COC(=O)C1=C(C)NC(=O)NC1c1ccc(C(F)(F)F)cc1` (stereo not given), the IC50 on Beta-glucuronidase (read-out: IC50) worked out at 9.38 µM. The Ratio IC50 in assay [1] came to 5.
For `COC(=O)C1=C(C)NC(=O)NC1c1ccc(OC(C)=O)c(OC)c1` (stereo not given), at Beta-glucuronidase (read-out: IC50), the half-maximal inhibitory concentration (IC50) is 28.2 µM.
`COC(=O)C1=C(C)NC(=O)NC1c1ccc(OC)c(OC)c1` (stereo not given): at Beta-glucuronidase, the 50% inhibitory concentration (IC50) entry is on record as “Not Active”.
For the compound `COC(=O)C1=C(C)NC(=O)NC1c1ccccc1F` (stereo not given), the IC50 at Beta-glucuronidase (read-out: IC50) is 14.1 µM.
Still for that read-out and setting: for `COC(=O)C1=C(C)NC(=O)NC1c1ccc(O)c(Cl)c1` (stereo not given) the value was 27.2 µM.
In the case of `COC(=O)C1=C(C)NC(=O)NC1c1ccc(Cl)cc1` (stereo not given), at Beta-glucuronidase (read-out: IC50), the IC50 worked out at 34.2 µM.
Consider `COC(=O)C1=C(C)NC(=O)NC1c1ccccc1` (stereo not given), for which the IC50 result at Beta-glucuronidase was “Not Active”.
Turning to `COC(=O)C1=C(C)NC(=O)NC1c1ccc(N(C)C)cc1` (stereo not given), the IC50 on Beta-glucuronidase (read-out: IC50) turned out to be 49.2 µM.
Same read-out and setting: for `COC(=O)C1=C(C)NC(=O)NC1CC(C)C` (stereo not given) the value was 55.2 µM; for `COC(=O)C1=C(C)NC(=O)NC1c1ccc(O)cc1` (stereo not given), 17.6 µM.
In the case of `COC(=O)C1=C(C)NC(=O)NC1c1cccc(O)c1` (stereo not given), at Beta-glucuronidase (read-out: IC50), the IC50 was 15.2 µM. Moreover, the Ratio IC50 in assay [1] was greater than 3.
Regarding `COC(=O)C1=C(C)NC(=O)NC1c1ccccc1OCc1ccccc1` (stereo not given), the IC50 entry on Beta-glucuronidase is “Not Active”.
As for `COC(=O)C1=C(C)NC(=O)NC1c1ccccc1OC` (stereo not given), the IC50 at Beta-glucuronidase (read-out: IC50) turned out to be 59.2 µM.
Same read-out and setting: for `COC(=O)C1=C(C)NC(=O)NC1c1ccc(C)s1` (stereo not given) the value was 33.1 µM; for `COC(=O)C1=C(C)NC(=O)NC1c1cccc2ccccc12` (stereo not given), 48.2 µM.
The same measure, in the same setting: for `COC(=O)C1=C(C)NC(=O)NC1c1cccs1` (stereo not given) the value was 18.2 µM; for `COC(=O)C1=C(C)NC(=O)NC1c1ccc(OC)cc1F` (stereo not given), 18.2 µM.
Consider `COC(=O)C1=C(C)NC(=O)NC1c1ccc(OC)cc1` (stereo not given), for which, at Beta-glucuronidase (read-out: IC50), the IC50 is 59.2 µM.
With `COC(=O)C1=C(C)NC(=O)NC1c1ccsc1` (stereo not given), at Beta-glucuronidase (read-out: IC50), the IC50 stood at 47.2 µM.
The same measure, in the same setting: for `COC(=O)C1=C(C)NC(=O)NC1c1cccc(OC)c1OC` (stereo not given) the value was 54.2 µM; for `COC(=O)C1=C(C)NC(=O)NC1c1ccccc1Cl` (stereo not given), 44.2 µM.
On the same count and under the same terms, for `CCCCC1NC(=O)NC(C)=C1C(=O)OC` (stereo not given) the value was 78.2 µM; for `COC(=O)C1=C(C)NC(=O)NC1c1ccc(C)o1` (stereo not given), 44.2 µM.
As for `COC(=O)C1=C(C)NC(=O)NC1c1cccc(OCc2ccccc2)c1` (stereo not given), the IC50 result on Beta-glucuronidase was “Not Active”.
In the case of `COC(=O)C1=C(C)NC(=O)NC1c1c(Cl)cccc1Cl` (stereo not given), the IC50 at Beta-glucuronidase (read-out: IC50) amounted to 24.2 µM. Further, the Ratio IC50 in assay [1] came to 2.
`CCOc1ccc(C2NC(=O)NC(C)=C2C(=O)OC)cc1` (stereo not given): on Beta-glucuronidase (read-out: IC50), the IC50 was determined as 72.2 µM.
Take `COC(=O)C1=C(C)NC(=O)NC1c1ccc2ccccc2c1` (stereo not given): the IC50 entry on Beta-glucuronidase is listed as “Not Active”.

Broadly, the IC50 is the concentration needed to halve the response being measured.
